One data set has as its system myocardial infarction. Put plainly: infarction visualization (MRT) after intravenous administration in rats with acutely induced myocardial infarction. Type of data set: in vivo. As to conditions: 24 hours after i.v. 100 μmol of Gd/kg. The text has this: The successful induction of an acute myocardial infarction was confirmed by means of NBT-staining.
A short description of data set [1]: hydrodynamic micelle diameter (2 Rh) by photon correlation spectroscopy (PCS). Format: physicochemical. The text has this: The amphiphilic compounds according to the invention are combined in solution and are present as aggregates. The size (2 Rh) of such aggregates (e.g., micelles, rods, wafers, etc.) can be determined with the aid of […] (PCS).
As a second criterion, the hydrodynamic micelle diameter 2 Rh, which must be >1 nm, is therefore used. Those perfluoroalkyl-containing metal complexes according to the invention whose 2 RH is ≧3, quite especially preferably >4 nm, are especially suitable.
(§1) Both the determination of the CMC and the photon correlation spectroscopy are described in H.-D. Dörfler, “Grenzflächen- und Kolloidchemie [Interface and Colloid Chemistry],” Weinheim, New York, Basel, Cambridge, Tokyo, VSH 1994.

Data set [2] is described as follows: proton relaxivity in plasma (R^1), Minispec P 20. Format: physicochemical. As to conditions: 40° C., 0.47 tesla, bovine plasma. How it is done:
As a third criterion, the proton-relaxivity in plasma (R^1) at 40° C. and a field strength of 0.47 tesla is used. The relaxivity, which is indicated in [l/mmol·s], is the quantitative measurement for the shortening of relaxation time T^1 of the protons. For the purpose according to the invention, the relaxivity must be as high as possible and >10 l/mmol·s, preferably >13 l/mmol·s, especially preferably >15 l/mmol·s.
Relaxivity R^1 [l/mmol·s] of the MR-contrast media according to the invention was determined with the Minispec P 20 device of the Bruker Company. The measurements were taken at 40° C. and a field strength of 0.47 tesla. Eight measuring points were recorded by each T1-sequence: 180°-TI-90°, inversion recovery. As a medium, bovine plasma of the Kraeber Company was used. The contrast medium concentrations [mmol/l] in the batches were between 0.30 and 1.16.

In the next data set the test system is arteriosclerotic plaque. The data set can be described thus: MRT-visualization of arteriosclerotic plaque after intravenous administration. Format: in vivo, Watanabe rabbits. The text has this:
Based on the contrast between the plaque with strong signals and the healthy vessel wall with little or no signals, a diagnosis of the arteriosclerotic vessel wall changes was possible.
The localization of the plaque, especially in aortic arches and in vascular passages, was confirmed by means of Sudan-III-staining.
The localization of the plaque, especially in aortic arches as well as in vascular passages, was confirmed by means of Sudan-III-staining. Then, the MR-imaging of the agar-embedded preparation was again examined with a T1-weighted gradientecho sequence (MPRage; 1.5 T; TR 11.1 ms, TE 4.3 ms, 15° flip angle α; NA: 2; matrix: 213*256) and a spin-echo sequence (1.5 T; TR: 400 ms, TE: 15 ms; NA: 16; matrix: 256*256) (post mortem image).

The next data set relates to iliac lymph nodes. Put plainly: lymph node visualization (MRT) after intravenous administration in VX2-tumor-bearing rabbits. Type of data set: in vivo. How it is done:
The pictures of FIG. 6 show MR images of an iliac lymph node and of a primary tumor (VX2-tumor implanted i.m.) precontrast, 60 minutes and 20 hours after intravenous administration of 100 μmol of Gd/kg of body weight of metal complex I in rabbits. […] The enhancement in the healthy lymph node tissue was 382% at the time of 15 minutes p.i. and 419% at the time of 60 minutes p.i. […] The ratio of signal intensities of healthy lymph node tissue to metastasis was 3.0 at the time of 15 minutes p.i. and 3.4 at the time of 60 minutes p.i. […] The enhancement in the healthy lymph node tissue was 246% at the time of 15 minutes p.i. and 282% at the time of 60 minutes p.i. […] The ratio of signal intensities of healthy lymph node tissue to metastasis was 2.5 at the time of 15 minutes p.i. and 1.7 at the time of 60 minutes p.i. […] The enhancement in the healthy lymph node tissue was 297% at the time of 10 minutes p.i. and 269% at the time of 60 minutes p.i. […] The ratio of signal intensities of healthy lymph node tissue to metastasis was 5.1 at the time of 10 minutes p.i. and 1.9 at the time of 60 minutes p.i. […] The enhancement in the healthy lymph node tissue was 195% at the time of 15 minutes p.i. and 233% at the time of 60 minutes p.i. […] The ratio of signal intensities of healthy lymph node tissue to metastasis was 1.9 at the time of 15 minutes p.i. and 1.8 at the time of 60 minutes p.i.

Data set [3] deals with primary tumor (VX2-tumor implanted i.m.). The data set can be described thus: tumor visualization (MRT) after intravenous administration in VX2-tumor-bearing rabbits. Type of data set: in vivo. How it is done: The pictures of FIG. 6 show MR images of an iliac lymph node and of a primary tumor (VX2-tumor implanted i.m.) precontrast, 60 minutes and 20 hours after intravenous administration of 100 μmol of Gd/kg of body weight of metal complex I in rabbits. […]

A short description of data set [4]: critical micelle formation concentration (CMC) by tensiometry. Type of data set: physicochemical. The procedure: In aqueous systems, these amphiphilic molecules show the properties that are characteristic of standard surfactants (such as, e.g., sodium dodecylsulfate, SDS). They thus reduce the surface tension of water. By tensiometry, the so-called CMC (critical micelle formation concentration in mol/l) can be determined. In this respect, the surface tension is determined based on the concentration of the substance to be measured. The CMC can be calculated from the plot of the surface tension function (c) that is obtained. The critical micelle formation concentration of the compounds according to the invention must be <10^−3 mol/l, preferably <10^−4 mol/l.
as §1

For a further data set, the system named is infarcted tissue. As to conditions: cited from earlier work.
[5] abbreviates: 24 hours after contrast medium administration, 200 μmol of Gd/kg i.v.

Where “and” joins values, the source holds several entries; their conditions need not be identical. Identical values can stand only once.

With `CC(C(=O)NCC(=O)NCCCC[C@H](NC(=O)CO[C@H]1O[C@H](CO)[C@@H](O)[C@H](O)[C@@H]1O)C(=O)N1CCN(S(=O)(=O)C(F)(F)C(F)(F)C(F)(F)C(F)(F)C(F)(F)C(F)(F)C(F)(F)C(F)(F)F)CC1)N1CCN(CC(=O)[O-])CCN(CC(=O)[O-])CCN(CC(=O)[O-])CC1.[Gd+3]` (stereo partly drawn) [metal complex XV, 6-N-[1,4,7-Tris(carboxylatomethyl)-1,4,7,10-tetraazacyclododecane-10-N-(pentanoyl-3-aza-4-oxo-5-methyl-5-yl)]-2-N-[1-O-α-D-carbonylmethyl-mannopyranose]-L-lysine-[1-(4-perfluorooctylsulfonyl)-piperazine]-amide, Gd complex], in the data set with myocardial infarction, the “signal in the infarction area (T1-weighted spin-echo images)” value was “strong signal rise”. The “2 Rh (hydrodynamic micelle diameter)” value in data set [1] was 4.4 nm. For the same compound, the “R^1 Plasma (relaxivity)” value in data set [2] came out at 15.9 mmol⁻¹ s⁻¹. Further, the “signal in arteriosclerotic plaque (MR images of the aorta)” value in the data set on arteriosclerotic plaque (35 minutes, 60 minutes and 24 hours after i.v. 10 μmol of Gd/kg) is given as “strong signal rise”. The “signal in the arteriosclerotic plaque (MR images of the aorta)” value in the data set with arteriosclerotic plaque (24 hours and 48 hours after i.v. 25 μmol of Gd/kg) is given as “strong signal rise”. Besides, the “correlation of the aortic sections with strong signal rise and Sudan-III stained plaque” value in the data set on arteriosclerotic plaque (post mortem image of the agar-embedded preparation, 10 μmol of Gd/kg i.v.) is “excellent correlation”. For the same compound, the “signal in healthy lymph node tissue (T1-weighted gradient-echo images)” value with iliac lymph nodes (200 μmol of Gd/kg i.v.) is on record as “strong signal rise”. In the data set with iliac lymph nodes (setting [5]), the “signal in the metastasis, late” value was “considerable signal rise” and the “signal rise in healthy lymph node tissue, late” value is on record as “reduced”. The “signal in zones within the lymph node diagnosed as metastases (confirmed histologically)” value in the data set with iliac lymph nodes (early images, 200 μmol of Gd/kg i.v.) is given as “without signal rise”. Also, the “course of the enhancement of the primary tumor” value in data set [3] (24 hours p.i., 200 μmol of Gd/kg i.v.) is recorded as “propagates out from the center of the tumor”. In data set [3] (immediately after administration, 200 μmol of Gd/kg i.v.), the “enhancement of the primary tumor (especially the periphery)” value is “considerable enhancement”. In addition, the “CMC (critical micelle formation concentration)” value (shortened to “CMC”) in data set [4] turned out to be 2.5e-06 mol/L.

Take `CC(C(=O)NCC(=O)N1CCN(S(=O)(=O)C(F)(F)C(F)(F)C(F)(F)C(F)(F)C(F)(F)C(F)(F)C(F)(F)C(F)(F)F)CC1)N1CCN(CC(=O)[O-])CCN(CC(=O)[O-])CCN(CC(=O)[O-])CC1.[Gd+3]` (stereo not drawn) [metal complex I, Gadolinium complex of 10-[1-methyl-2-oxo-3-aza-5-oxo-{4-perfluorooctyl-sulfonyl-piperazin-1-yl}-pentyl]-1,4,7-tris(carboxymethyl)-1,4,7,10-tetraazacyclododecane]: the “signal in the infarction area (T1-weighted spin-echo images)” value in the data set on myocardial infarction was “strong signal rise”. The “2 Rh (hydrodynamic micelle diameter)” value in data set [1] was found to be 4.6 nm. Moreover, the “R^1 Plasma (relaxivity)” value in data set [2] came out at 35.7 mmol⁻¹ s⁻¹. Moreover, the “signal in healthy lymph node tissue (T1-weighted gradient-echo images)” value with iliac lymph nodes (100 μmol of Gd/kg i.v., 60 minutes and 20 hours) is reported as “strong signal rise”. For the same compound, the “enhancement of the primary tumor (especially the periphery)” value in data set [3] (60 minutes p.i., 100 μmol of Gd/kg i.v.) is given as “considerable enhancement”. The “course of the signal rise of the primary tumor” value in data set [3] (20 hours p.i., 100 μmol of Gd/kg i.v.) is “propagated in the more central region of the tumor”. For the same compound, the “enhancement of a pathological structure (optionally secondary tumor or necrosis) on the contralateral side” value in data set [3] (late images, 100 μmol of Gd/kg i.v.) is recorded as “late enhancement”. Moreover, the “CMC” value in data set [4] turned out to be 1.86e-06 mol/L.

As to gadolinium-mesoporphyrin [Gd-MP], the “ratio of the signal intensities during MRI for infarcted tissue in comparison to healthy tissue” value with infarcted tissue (infarcted kidney and myocardium (both cases)) is 2.10 and 2.19. Further, the “metal content of the infarcted organ compared with non-infarcted” value in the data set with infarcted tissue (kidney (Example 3 of WO 95/31219)) is given as “as high as that of the non-infarcted organ”. In addition, in the data set on infarcted tissue (myocardium (Example 1 of WO 95/31219)), the “metal content in the infarcted tissue compared with non-infarcted” value is on record as “nine times as high”.

Consider `O=C([O-])CN1CCN(CC(=O)[O-])CCN(CC(O)CNC(=O)COCCC(F)(F)C(F)(F)C(F)(F)C(F)(F)C(F)(F)C(F)(F)C(F)(F)C(F)(F)C(F)(F)C(F)(F)F)CCN(CC(=O)[O-])CC1.[Gd+3]` (stereo not drawn) [metal complex XI, Gadolinium complex of 10-[2-hydroxy-4-aza-5-oxo-7-oxa-10,10,11,11,12,12,13,13,14,14,15,15,16,16,17,17,18,18,19,19-henicosafluoro-nonadecyl]-1,4,7-tris(carboxymethyl)-1,4,7,10-tetraazacyclododecane], for which the “2 Rh (hydrodynamic micelle diameter)” value in data set [1] turned out to be 35.5 nm. Besides, the “R^1 Plasma (relaxivity)” value in data set [2] came to 24.8 mmol⁻¹ s⁻¹. The “CMC” value in data set [4] came to 2.88e-06 mol/L.

For the compound `CCN(CC(=O)NCC(O)CN1CCN(CC(=O)[O-])CCN(CC(=O)[O-])CCN(CC(=O)[O-])CC1)S(=O)(=O)C(F)(F)C(F)(F)C(F)(F)C(F)(F)C(F)(F)C(F)(F)C(F)(F)C(F)(F)F.[Gd+3]` (stereo not drawn) [metal complex IV, Gadolinium complex of 10-[2-hydroxy-4-aza-5-oxo-7-aza-7-(perfluorooctyl-sulfonyl)-nonyl]-1,4,7-tris (carboxymethyl)-1,4,7,10-tetraazacyclododecane], the “2 Rh (hydrodynamic micelle diameter)” value in data set [1] was 31.5 nm. The “R^1 Plasma (relaxivity)” value in data set [2] was found to be 29.7 mmol⁻¹ s⁻¹. For the same compound, the “CMC” value in data set [4] was determined as 1e-06 mol/L.

Take `CC(C(=O)NCC(=O)NCCOCCOCCOCCCNC(=O)COCCC(F)(F)C(F)(F)C(F)(F)C(F)(F)C(F)(F)C(F)(F)C(F)(F)C(F)(F)F)N1CCN(CC(=O)[O-])CCN(CC(=O)[O-])CCN(CC(=O)[O-])CC1.[Gd+3]` (stereo not drawn) [metal complex IX]: the “2 Rh (hydrodynamic micelle diameter)” value in data set [1] came out at 6.0 nm. Also, the “R^1 Plasma (relaxivity)” value in data set [2] worked out at 13.3 mmol⁻¹ s⁻¹. The “CMC” value in data set [4] was 2.65e-06 mol/L.

For `O=C([O-])CN1CCN(CC(=O)[O-])CCN(CC(O)CNC(=O)COCCC(F)(F)C(F)(F)C(F)(F)C(F)(F)C(F)(F)C(F)(F)C(F)(F)C(F)(F)F)CCN(CC(=O)[O-])CC1.[Gd+3]` (stereo not drawn) [metal complex II, Gadolinium complex of 10-[2-hydroxy-4-aza-5-oxo-7-oxa-10,10,11,11,12,12,13,13,14,14,15,15,16,16,17,17-heptadecafluoroheptadecyl]-1,4,7-tris (carboxymethyl)-1,4,7,10-tetraazacyclododecane], the “2 Rh (hydrodynamic micelle diameter)” value in data set [1] is 14 nm. Besides, the “R^1 Plasma (relaxivity)” value in data set [2] is 33 mmol⁻¹ s⁻¹. For the same compound, in data set [4], the “CMC” value was determined as 2.3e-05 mol/L.

Values taken from patent publication US6818203B2, “Use of perfluoroalkyl-containing metal complexes as contrast media in MR-imaging for visualization of plaque, tumors and necroses” (Schering Aktiengesellschaft, priority 2000, dated 2004).
